Tests used:
[1] = target: T1, MMP-9 (Homo sapiens, UniProt P14780); experiment: In vitro MMP inhibition, Ki determination (fluorogenic substrate II); type: biochemical; settings: value outside parentheses
T1 construct: made in house; host or cells: MMP-9-transfected HT1080 cells (spent media)
In short: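 HT1080-derived MMP-9, activated with APMA, trypsin or MMP-3, incubated 1 hr at room temperature with inhibitor and 4 μM fluorogenic substrate II (at or below Km) in pH 7.5 Tris/NaCl/CaCl2 buffer; ex 330/em 420 nm. Ki from Morrison-equation regression, without substrate correction.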

[2] = target: T2, MMP-14 (Homo sapiens, UniProt P50281); experiment: as above; type: biochemical; settings: value outside parentheses; read-out: MMP-14 Ki
T2 construct: The catalytic domain enzyme was expressed in E. coli inclusion bodies, solubilized in urea; made in house
In short: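 E. coli-expressed, refolded MMP-14 catalytic domain, activated with APMA or trypsin, in 100 mM Tris-HCl pH 7.5, 100 mM NaCl, 10 mM CaCl2, 0.05% Brij-type detergent. Apparent Ki by Morrison-equation regression of velocity vs inhibitor and enzyme concentration.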

T1 sequence (P14780 107-707 limits assumed): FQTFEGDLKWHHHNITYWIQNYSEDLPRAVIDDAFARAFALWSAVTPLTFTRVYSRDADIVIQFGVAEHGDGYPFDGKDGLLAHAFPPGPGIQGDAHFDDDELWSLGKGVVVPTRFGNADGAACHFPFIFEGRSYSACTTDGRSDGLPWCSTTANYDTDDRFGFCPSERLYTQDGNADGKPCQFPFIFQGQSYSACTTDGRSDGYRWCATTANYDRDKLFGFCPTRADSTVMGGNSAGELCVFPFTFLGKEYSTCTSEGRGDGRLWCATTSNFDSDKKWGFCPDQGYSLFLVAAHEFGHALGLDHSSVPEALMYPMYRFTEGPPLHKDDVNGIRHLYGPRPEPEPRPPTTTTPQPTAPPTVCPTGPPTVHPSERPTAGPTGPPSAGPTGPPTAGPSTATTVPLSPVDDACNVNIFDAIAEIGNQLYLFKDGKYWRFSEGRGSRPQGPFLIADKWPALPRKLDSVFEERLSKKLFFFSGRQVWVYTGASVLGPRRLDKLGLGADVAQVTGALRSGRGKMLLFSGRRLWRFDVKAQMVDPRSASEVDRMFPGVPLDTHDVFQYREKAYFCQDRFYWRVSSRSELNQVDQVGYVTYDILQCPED

SMILES | Ki [1] [µM] | Ki [2] [µM]
O=C(NO)C1(S(=O)(=O)N2CCC(COCC(F)(F)C(F)(F)C(F)(F)F)CC2)CCOCC1 [Example 377] | 0.174 | > 10
O=C(NO)C1(S(=O)(=O)N2CCN(c3ccc(-c4ccc(F)cc4F)cn3)CC2)CCOCC1 [Example 316] | 0.00239 | 0.91
Cc1ccccc1-c1cnc(N2CCN(S(=O)(=O)C3(C(=O)NO)CCOCC3)CC2)s1 [Example 348] | 0.00957 | 0.65
O=C(NO)C1(S(=O)(=O)N2CCN(c3ncc(-c4ccc(F)cc4F)s3)CC2)CCOCC1 [Example 359] | 0.00121 | 0.0429
O=C(NO)C1(S(=O)(=O)N2CCC(c3ccc(OC(F)(F)C(F)F)cc3)CC2)CCOCC1 [Example 337] | 0.000792 | 1.61
O=C(NO)C1(S(=O)(=O)N2CCN(c3cccc(OCCCC(F)(F)F)c3)CC2)CCOCC1 [Example 355] | 0.638 | 3.44
O=C(NO)C1(S(=O)(=O)N2CCC(c3ccc(OCC(F)(F)C(F)(F)F)cc3)CC2)CCOCC1 [Example 330] | 0.00303 | > 10
O=C(NO)C1(S(=O)(=O)N2CCN(c3ccc(-c4cccc(OC(F)(F)F)c4)cn3)CC2)CCOCC1 [Example 319] | 0.923 | > 10
O=C(NO)C1(S(=O)(=O)N2CCC(N3CCN(c4ccc(Cl)cc4)CC3)CC2)CCOCC1 [Example 315] | 4.96 | > 10
COC(=O)c1ccc(N2CCN(S(=O)(=O)C3(C(=O)NO)CCOCC3)CC2)cc1 [Example 324] | 0.00239 | 1.15
O=C(NO)C1(S(=O)(=O)N2CCN(c3ncc(-c4ccc(OC(F)(F)F)cc4)s3)CC2)CCOCC1 [Example 364] | 0.000802 | 0.0697
CCCCOc1cccc(N2CCN(S(=O)(=O)C3(C(=O)NO)CCOCC3)CC2)c1 [Example 354] | 0.786 | 4.14

Further lines, results first:

Ki [1] [µM] | Ki [2] [µM] | SMILES
0.00765 | 0.0797 | O=C(NO)C1(S(=O)(=O)N2CCC(COCc3ccccc3)CC2)CCOCC1 [Example 373]
0.0162 | 3.21 | CCCCCc1ccc(-c2cnc(N3CCN(S(=O)(=O)C4(C(=O)NO)CCOCC4)CC3)s2)cc1 [Example 380]
0.0049 | > 10 | O=C(NO)C1(S(=O)(=O)N2CCN(c3ccc(CCCC(F)(F)F)cc3F)CC2)CCOCC1 [Example 386]
0.0023 | > 10 | CCCCc1ccc(C2CCN(S(=O)(=O)C3(C(=O)NO)CCNCC3)CC2)nc1 [Example 388]
0.0294 | 1.76 | O=C(NO)C1(S(=O)(=O)N2CCC(c3ccc(-c4ccc(C(F)(F)F)cc4)cn3)CC2)CCOCC1 [Example 395]
0.00244 | 0.0503 | CC(C)c1ccc(-c2cnc(N3CCN(S(=O)(=O)C4(C(=O)NO)CCOCC4)CC3)s2)cc1 [Example 366]
0.0532 | > 10 | O=C(NO)C1(S(=O)(=O)N2CCC(c3ccc(-c4cccnc4)cn3)CC2)CCOCC1 [Example 390]
